Measured values: ChEMBL document CHEMBL1128901, “C-Attached aminoalkylindoles: potent cannabinoid mimetics” (Bioorg Med Chem Lett, 1996)

Assays:
[1] = target: T1, Cannabinoid receptor (Rattus norvegicus) (UniProt Q9QZN9+P20272); assay: Compound was evaluated for the inhibition of [3H]WIN-55212-2 binding in rat cerebellum membranes at the concentration 1000 nM; format: cell membranes; settings: Membrane
Mus musculus = organism: Mus musculus; assay: In vitro inhibition of electrically induced contractions in isolated mouse vas deferens (MVD) preparations.; format: functional
Cannabinoid receptor = Cannabinoid receptor (Rattus norvegicus, UniProt Q9QZN9+P20272); assay: Compound was evaluated for the inhibition of [3H]WIN-55212-2 binding in rat cerebellum membranes; format: cell membranes, Membrane
[2] = target: T1, Cannabinoid receptor (Rattus norvegicus); assay: Compound was evaluated for the inhibition of [3H]WIN-55212-2 binding in rat cerebellum membranes at the concentration 3000 nM; format: cell membranes; settings: Membrane

T1 sequence (P20272 whole entry, looked up): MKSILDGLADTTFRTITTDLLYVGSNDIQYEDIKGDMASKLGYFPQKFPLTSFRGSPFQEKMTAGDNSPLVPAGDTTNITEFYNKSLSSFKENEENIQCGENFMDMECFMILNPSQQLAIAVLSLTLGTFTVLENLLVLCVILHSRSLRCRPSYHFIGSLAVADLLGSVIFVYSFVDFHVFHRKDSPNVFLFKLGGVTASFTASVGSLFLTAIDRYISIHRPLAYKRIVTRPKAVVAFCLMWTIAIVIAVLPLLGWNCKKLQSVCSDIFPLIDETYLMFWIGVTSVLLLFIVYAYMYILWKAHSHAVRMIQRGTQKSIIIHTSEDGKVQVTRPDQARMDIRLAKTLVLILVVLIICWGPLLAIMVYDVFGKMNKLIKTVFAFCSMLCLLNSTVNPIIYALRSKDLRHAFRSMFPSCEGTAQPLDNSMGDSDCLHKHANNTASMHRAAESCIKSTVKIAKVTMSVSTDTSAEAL
T1 sequence (Q9QZN9 whole entry, looked up): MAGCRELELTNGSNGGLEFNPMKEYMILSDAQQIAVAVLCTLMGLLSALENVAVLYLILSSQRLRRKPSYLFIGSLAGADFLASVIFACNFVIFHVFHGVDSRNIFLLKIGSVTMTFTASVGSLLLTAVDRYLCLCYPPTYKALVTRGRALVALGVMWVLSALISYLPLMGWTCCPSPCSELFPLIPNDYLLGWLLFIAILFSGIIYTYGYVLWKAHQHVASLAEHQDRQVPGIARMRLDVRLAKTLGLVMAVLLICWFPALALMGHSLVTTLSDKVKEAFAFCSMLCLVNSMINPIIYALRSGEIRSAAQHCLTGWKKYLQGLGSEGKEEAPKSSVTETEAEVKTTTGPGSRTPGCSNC

SMILES: COc1ccc(C(=O)c2c(C)n(CC3CCCN3C)c3ccccc23)cc1 (centres undefined)
- inhibition [1]: 53%
- IC50 (Mus musculus): 0.063 µM

SMILES: COc1ccc(C(=O)c2c(C)n(C3CCN(C)CC3)c3ccccc23)cc1
- IC50 (Mus musculus): > 10 µM

SMILES: O=C(c1cccc2ccccc12)c1cn(CC2CCCCN2)c2ccccc12 (centres undefined)
- IC50 (Mus musculus): 0.003 µM
- IC50 (Cannabinoid receptor): 0.0066 µM

SMILES: COc1ccc(C(=O)c2c(C)n(CC3CSCCN3C)c3ccccc23)cc1 (centres undefined)
- inhibition [1]: 40%
- IC50 (Mus musculus): 1.15 µM

SMILES: CN1CCOCC1Cn1cc(C(=O)c2cccc3ccccc23)c2ccccc21 (centres undefined)
- IC50 (Mus musculus): 0.0004 µM
- IC50 (Cannabinoid receptor): 0.003 µM

SMILES: COc1ccc(C(=O)c2c(C)n(C3CCCN(C)C3)c3ccccc23)cc1 (centres undefined)
- Inhibition (Mus musculus): 80%

SMILES: COc1ccc(C(=O)c2c(C)n(CC3CCCN3)c3ccccc23)cc1 (centres undefined)
- IC50 (Mus musculus): 0.22 µM

SMILES: COc1ccc(C(=O)c2c(C)n(CC3CCCCN3C)c3ccccc23)cc1 (centres undefined)
- IC50 (Mus musculus): 0.134 µM
- IC50 (Cannabinoid receptor): 0.699 µM

SMILES: CN1CCCCC1Cn1cc(C(=O)c2cccc3ccccc23)c2ccccc21 (centres undefined)
- IC50 (Mus musculus): 0.00047 µM
- IC50 (Cannabinoid receptor): 0.00122 µM

SMILES: CCN1CCCC1Cn1c(C)c(C(=O)c2ccc(OC)cc2)c2ccccc21 (centres undefined)
- IC50 (Mus musculus): > 10 µM

SMILES: COc1ccc(C(=O)c2c(C)n(CC3C[S+]([O-])CCN3C)c3ccccc23)cc1 (centres undefined)
- inhibition [1]: -10%
- IC50 (Mus musculus): > 10 µM

SMILES: Cc1c(C(=O)c2cccc3ccccc23)c2ccccc2n1CC1CCCN1C (centres undefined)
- IC50 (Mus musculus): 0.0024 µM
- IC50 (Cannabinoid receptor): 0.0065 µM

SMILES: COc1ccc(C(=O)c2cn(CC3CCCN3C)c3ccccc23)cc1 (centres undefined)
- IC50 (Mus musculus): 0.008 µM

SMILES: COc1ccc(C(=O)c2c(C)n(CCC3CCCCN3C)c3ccccc23)cc1 (centres undefined)
- IC50 (Mus musculus): > 10 µM

SMILES: COc1ccc(C(=O)c2c(C)n(C[C@@H]3CCCN3C)c3ccccc23)cc1
- IC50 (Mus musculus): 0.037 µM
- IC50 (Cannabinoid receptor): 0.497 µM

SMILES: CN1CCN(C)C(Cn2cc(C(=O)c3cccc4ccccc34)c3ccccc32)C1 (centres undefined)
- IC50 (Mus musculus): 0.015 µM
- IC50 (Cannabinoid receptor): 0.051 µM

SMILES: Cc1c(C(=O)c2cccc3ccccc23)c2ccccc2n1CC1CCCCN1C (centres undefined)
- IC50 (Mus musculus): 0.0012 µM
- IC50 (Cannabinoid receptor): 0.0054 µM

SMILES: COc1ccc(C(=O)c2c(C)n(CC3CN(C)CCN3C)c3ccccc23)cc1 (centres undefined)
- inhibition [1]: -8%
- IC50 (Mus musculus): 1.43 µM

SMILES: COc1ccc(C(=O)c2c(C)n(C[C@H]3CCCN3C)c3ccccc23)cc1
- inhibition [1]: 7%
- Inhibition (Mus musculus): 80%

SMILES: COc1ccc(C(=O)c2c(C)n(CC3CCCN(C)C3)c3ccccc23)cc1 (centres undefined)
- IC50 (Mus musculus): > 10 µM

SMILES: COc1ccc(C(=O)c2c(C)n(CC3COCCN3C)c3ccccc23)cc1 (centres undefined)
- inhibition [2]: 43%
- IC50 (Mus musculus): 0.21 µM

SMILES: O=C(c1cccc2ccccc12)c1cn(CCN2CCOCC2)c2ccccc12
- IC50 (Cannabinoid receptor): 0.0078 µM

SMILES: COc1ccc(C(=O)c2cn(CC3CCCCN3C)c3ccccc23)cc1 (centres undefined)
- IC50 (Mus musculus): 0.0026 µM
- IC50 (Cannabinoid receptor): 0.0097 µM

SMILES: COc1ccc(C(=O)c2c(C)n(CC3CN(C)CCO3)c3ccccc23)cc1 (centres undefined)
- IC50 (Mus musculus): > 10 µM
